Measured values published in patent publication US12660819B2, “Herbicidal derivatives” (SYNGENTA CROP PROTECTION AG, priority 2020, dated 2026).

Assays:
Type in all cases: in vivo
[1] = tested on: Amaranthus palmeri (AMAPA); experiment: Post-emergence Test (glasshouse, percentage damage to the plant); details: post-emergence; 1000 g/ha unless otherwise stated; evaluated after 13 days
How it was run: (§1)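 Spray treatment of sown glasshouse pots at 1000 g/ha (default rate), vehicle acetone/water 50:50 plus 0.5% Tween 20. Read-out: percentage damage after 13 days, converted to a score where 5 denotes 81-100% and 1 denotes 0-20%.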

[2] = tested on: Amaranthus retoflexus (AMARE); experiment: as above; details: post-emergence; 1000 g/ha unless otherwise stated; evaluated after 13 days
How it was run: as §1

[3] = tested on: Echinochloa crus-galli (ECHCG); experiment: as above; details: post-emergence; 1000 g/ha unless otherwise stated; evaluated after 13 days
How it was run: as §1

[4] = tested on: Ipomoea hederacea (IPOHE); experiment: as above; details: post-emergence; 1000 g/ha unless otherwise stated; evaluated after 13 days
How it was run: (§2)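 Scored 13 days after spraying as percentage plant damage in five bands (5=81–100%, 4=61–80%, 3=41–60%, 2=21–40%, 1=0–20%). Spray at 1000 g/ha unless stated, in acetone/water 50:50 plus 0.5% Tween 20, onto sown glasshouse pots (24/16 °C, 14 h light, 65% humidity).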

Setaria faberi (SETFA) [5] = experiment: as above; details: post-emergence; 1000 g/ha unless otherwise stated; evaluated after 13 days
How it was run: as §2

Zea mays (ZEAMX) [6] = experiment: as above; details: post-emergence; 1000 g/ha unless otherwise stated; evaluated after 13 days
How it was run: as §2

[7] = tested on: Amaranthus retoflexus (AMARE); experiment: Pre-emergence Test (glasshouse, percentage damage to the plant); details: 1000 g/ha unless otherwise stated, Amaranthus retoflexus
Setaria faberi (SETFA) [8] = experiment: as above; details: 1000 g/ha unless otherwise stated, Setaria faberi
[9] = tested on: Echinochloa crus-galli (ECHCG); experiment: as above; details: 1000 g/ha unless otherwise stated, Echinochloa crus-galli
[10] = tested on: Ipomoea hederacea (IPOHE); experiment: as above; details: 1000 g/ha unless otherwise stated, Ipomoea hederacea
[11] = tested on: Amaranthus palmeri (AMAPA); experiment: as above; details: 1000 g/ha unless otherwise stated, Amaranthus palmeri
Zea mays (ZEAMX) [12] = experiment: as above; details: 1000 g/ha unless otherwise stated, Zea mays

| Compound | AMAPA, percentage damage caused to the plant (five-point scale) [1] | AMARE, percentage damage caused to the plant (five-point scale) [2] | ECHCG, percentage damage caused to the plant (five-point scale) [3] | IPOHE, percentage damage caused to the plant (five-point scale) [4] | SETFA, percentage damage caused to the plant (five-point scale) (Setaria faberi (SETFA) [5]) | ZEAMX, percentage damage caused to the plant (five-point scale) (Zea mays (ZEAMX) [6]) | percentage damage to the plant, AMARE (five-point scale) [7] | percentage damage to the plant, SETFA (five-point scale) (Setaria faberi (SETFA) [8]) | percentage damage to the plant, ECHCG (five-point scale) [9] | percentage damage to the plant, IPOHE (five-point scale) [10] | percentage damage to the plant, AMAPA (five-point scale) [11] | percentage damage to the plant, ZEAMX (five-point scale) (Zea mays (ZEAMX) [12]) |
| --- | --- | --- | --- | --- | --- | --- | --- | --- | --- | --- | --- | --- |
| CCn1c(C)c(-c2ccc(Cl)cc2F)c(=O)c(C(=O)OC)c1-c1cnc(Cl)c(Cl)c1 [Compound 282, methyl 5-(4-chloro-2-fluoro-phenyl)-2-(5,6-dichloro-3-pyridyl)-1-ethyl-6-methyl-4-oxo-pyridine-3-carboxylate] | 4 (4=61-80%) | 4 (4=61-80%) | 4 (4=61-80%) | 2 (2=21-40%) | 1 (1=0-20%) | 3 (3=41-60%) | 3 (3=41-60%) | 1 (1=0-20%) | 1 (1=0-20%) | 0 | 4 (4=61-80%) |  |
| CCn1c(C)c(-c2ccnn2C)c(=O)c(C(=O)O)c1-c1ccc(Cl)c(Cl)c1 [Compound 241, 2-(3,4-dichlorophenyl)-1-ethyl-6-methyl-5-(2-methylpyrazol-3-yl)-4-oxo-pyridine-3-carboxylic acid] | 5 (5=81-100%) | 5 (5=81-100%) |  | 3 (3=41-60%) | 4 (4=61-80%) | 3 (3=41-60%) | 3 (3=41-60%) | 5 (5=81-100%) | 5 (5=81-100%) | 3 (3=41-60%) | 2 (2=21-40%) | 1 (1=0-20%) |
| CCn1c(C)c(-c2cccc3c2OC(F)(F)O3)c(=O)c(C(=O)O)c1-c1ccc(Cl)c(Cl)c1 [Compound 223, 2-(3,4-dichlorophenyl)-5-(2,2-difluoro-1,3-benzodioxol-4-yl)-1-ethyl-6-methyl-4-oxo-pyridine-3-carboxylic acid] | 5 (5=81-100%) | 5 (5=81-100%) |  | 1 (1=0-20%) | 3 (3=41-60%) | 1 (1=0-20%) | 1 (1=0-20%) | 3 (3=41-60%) | 1 (1=0-20%) | 0 | 3 (3=41-60%) | 1 (1=0-20%) |
| CCn1c(C)c(-c2ccc(F)cc2F)c(=O)c(C(=O)OC)c1-c1cnc(Cl)c(Cl)c1 [Compound 213, methyl 2-(5,6-dichloro-3-pyridyl)-5-(2,4-difluorophenyl)-1-ethyl-6-methyl-4-oxo-pyridine-3-carboxylate] | 3 (3=41-60%) |  | 0 | 1 (1=0-20%) | 0 | 1 (1=0-20%) | 0 | 0 | 0 | 0 | 0 | 0 |
